Results reported in US20110072525A1, “COMPOSITIONS AND METHODS FOR THE TREATMENT OF PSYCHIATRIC AND NEUROLOGICAL DISORDERS” (priority 2009, published 2011).

Test system: wild type C57BL6 mice
Test: Prepulse inhibition (PPI) of the acoustic startle response, control experiment
Type: in vivo
Details: wild type C57BL6 mice injected with MK-801 1 mg/kg; same PPI protocol; data not shown
Experimental: Prepulse inhibition (PPI) of the acoustic startle response. Prepulse inhibition (PPI) of the acoustic startle response was measured as described previously with some minor modifications (E. S. Emamian et al., 2004b). Adult homozygous mutant mice and their wild-type littermates were housed individually for 2 weeks prior to testing. Testing was conducted in a SR-Lab system (San Diego Instruments). Response amplitude was calculated as the maximum response level occurred during the 100 ms recording. Because animals can habituate to the prepulse, and to the startle stimulus, the number of trials was kept to minimum. Immediately after being placed in the chamber, the animal was allowed to acclimate for 5 min which background noise (86 dB) continually present. The animal then received 10 sets of the following 5 types of trials, distributed pseudo-randomly, and separated by 15 sec inter-trial intervals: Trial 1: 40 ms, 120 dB noise burst alone; Trial 2-4: 120 dB startle stimuli preceded 100 ms by one of the three 20 ms prepulses: 90 dB, 94 dB or 98 dB; Trial 5: no-stimulus/background noise alone (86 dB). […] Data was analyzed using ANOVA with repeated measures.

## C[C@]12N[C@H](Cc3ccccc31)c1ccccc12 [MK-801]
  Prepulse inhibition (PPI) of the acoustic startle response: significant decrease in PPI
